# Source: ChEMBL document CHEMBL1201861, “Genomics of Drug Sensitity in Cancer screening data, Wellcome Trust Sanger Institute”
# Columns and labels:
# Experiment in all cases: cells
# COLO-829 = assay type: functional, cell-based, Homo sapiens; conditions: Homo sapiens, COLO-829
# Description: SANGER: Inhibition of human COLO-829 cell growth in a cell viability assay.
# Ca-Ski = assay type: functional, cell-based; conditions: Homo sapiens;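 also: cell viability assay measuring inhibition of Ca-Ski cell growth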
# Description: SANGER: Inhibition of human Ca-Ski cell growth in a cell viability assay.
# Capan-2 = assay type: functional, cell-based, Homo sapiens; conditions: Homo sapiens, Capan-2;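 also: Capan-2 cell growth inhibition, read out with a viability assay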
# Description: SANGER: Inhibition of human Capan-2 cell growth in a cell viability assay.
# D283 Med = assay type: functional, cell-based, Homo sapiens; conditions: Homo sapiens, D283 Med
# Description: SANGER: Inhibition of human D-283MED cell growth in a cell viability assay.
# DBTRG-05MG = assay type: functional, cell-based, Homo sapiens; conditions: Homo sapiens, DBTRG-05MG;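 also: cell viability assay measuring growth inhibition of human DBTRG-05MG cells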
# Description: SANGER: Inhibition of human DBTRG-05MG cell growth in a cell viability assay.
# DMS-273 = assay type: functional, cell-based, Homo sapiens; conditions: Homo sapiens, DMS-273
# Description: SANGER: Inhibition of human DMS-273 cell growth in a cell viability assay.
# DoTc2-4510 = assay type: functional, cell-based, Homo sapiens; conditions: Homo sapiens, DoTc2-4510
# EFO-27 = assay type: functional, cell-based, Homo sapiens; conditions: Homo sapiens, EFO-27;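 also: growth inhibition of EFO-27 cells, read out with a cell viability assay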
# Description: SANGER: Inhibition of human EFO-27 cell growth in a cell viability assay.
# ES4 = assay type: functional, cell-based, Homo sapiens; conditions: Homo sapiens, ES4;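 also: growth inhibition of human ES4 cells, read out by a cell viability assay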
# Description: SANGER: Inhibition of human ES4 cell growth in a cell viability assay.
# ES5 = assay type: functional, cell-based, Homo sapiens; conditions: Homo sapiens, ES5;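 also: growth inhibition of human ES5 cells, read out by a cell viability assay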
# Description: SANGER: Inhibition of human ES5 cell growth in a cell viability assay.
# ETK-1 = assay type: functional, cell-based, Homo sapiens; conditions: Homo sapiens, ETK-1;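 also: growth inhibition of human ETK-1 cells, read out with a cell viability assay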
# Description: SANGER: Inhibition of human ETK-1 cell growth in a cell viability assay.
# GOTO = assay type: functional, cell-based, Homo sapiens; conditions: Homo sapiens, GOTO;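 also: growth inhibition of GOTO cells, read out by a cell viability assay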
# Description: SANGER: Inhibition of human GOTO cell growth in a cell viability assay.
# HCC1569 = assay type: functional, cell-based, Homo sapiens; conditions: Homo sapiens, HCC1569;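 also: growth inhibition of human HCC1569 cells, read out with a cell viability assay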
# Description: SANGER: Inhibition of human HCC1569 cell growth in a cell viability assay.
# HCC2157 = assay type: functional, cell-based; conditions: Homo sapiens;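 also: growth inhibition of the cancer cell line, read out as cell viability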
# Description: SANGER: Inhibition of human HCC2157 cell growth in a cell viability assay.
# HCC70 = assay type: functional, cell-based, Homo sapiens; conditions: Homo sapiens, HCC70;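 also: cell viability assay measuring how strongly the compound suppresses proliferation of HCC70 cells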
# Description: SANGER: Inhibition of human HCC70 cell growth in a cell viability assay.
# HH = assay type: functional, cell-based; conditions: Homo sapiens
# Description: SANGER: Inhibition of human HH cell growth in a cell viability assay.
# KOSC-2 = assay type: functional, cell-based, Homo sapiens; conditions: Homo sapiens, KOSC-2;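 also: growth inhibition of KOSC-2 cells, read out by a cell viability assay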
# Description: SANGER: Inhibition of human KOSC-2 cell growth in a cell viability assay.
# KYSE-450 = assay type: functional, cell-based; conditions: Homo sapiens;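 also: cell growth inhibition measured by a viability assay in human KYSE-450 cells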
# Description: SANGER: Inhibition of human KYSE-450 cell growth in a cell viability assay.
# LB771-HNC = assay type: functional, cell-based, Homo sapiens; conditions: Homo sapiens, LB771-HNC;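 also: growth inhibition of LB771-HNC human cells, read out with a cell viability assay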
# Description: SANGER: Inhibition of human LB771-HNC cell growth in a cell viability assay.
# LK-2 = assay type: functional, cell-based, Homo sapiens; conditions: Homo sapiens, LK-2;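 also: growth inhibition of LK-2 cells, read out with a viability assay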
# Description: SANGER: Inhibition of human LK-2 cell growth in a cell viability assay.
# MKN-45 = assay type: functional, cell-based, Homo sapiens; conditions: Homo sapiens, MKN-45;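 also: growth inhibition of human MKN-45 cells, measured with a cell viability assay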
# Description: SANGER: Inhibition of human MKN45 cell growth in a cell viability assay.
# MV4-11 = assay type: functional, cell-based, MV-4-11; conditions: Homo sapiens;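 also: cell viability readout measuring growth inhibition of human MV-4-11 cells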
# Description: SANGER: Inhibition of human MV-4-11 cell growth in a cell viability assay.
# NB12 = assay type: functional, cell-based, Homo sapiens; conditions: Homo sapiens, NB12;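 also: growth inhibition of human NB12 cells, read out by a cell viability assay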
# Description: SANGER: Inhibition of human NB12 cell growth in a cell viability assay.
# NB14 = assay type: functional, cell-based; conditions: Homo sapiens;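 also: growth inhibition of NB14 cells measured with a cell viability assay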
# Description: SANGER: Inhibition of human NB14 cell growth in a cell viability assay.
# NB5 = assay type: functional, cell-based, Homo sapiens; conditions: Homo sapiens, NB5;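 also: growth inhibition of NB5 cells, read out as cell viability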
# Description: SANGER: Inhibition of human NB5 cell growth in a cell viability assay.
# NCI-H1563 = assay type: functional, cell-based, Homo sapiens; conditions: Homo sapiens, NCI-H1563;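 also: growth inhibition of human NCI-H1563 cells, read out with a cell viability assay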
# Description: SANGER: Inhibition of human NCI-H1563 cell growth in a cell viability assay.
# NCI-H2126 = assay type: functional, cell-based, Homo sapiens; conditions: Homo sapiens, NCI-H2126;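 also: growth inhibition of the cancer cell line, determined with a cell viability readout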
# Description: SANGER: Inhibition of human NCI-H2126 cell growth in a cell viability assay.
# NCI-H520 = assay type: functional, cell-based, Homo sapiens; conditions: Homo sapiens, NCI-H520;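 also: growth inhibition of NCI-H520 cells, measured by a cell viability assay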
# Description: SANGER: Inhibition of human NCI-H520 cell growth in a cell viability assay.
# NH-12 = assay type: functional, cell-based, Homo sapiens; conditions: Homo sapiens, NH-12;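 also: growth inhibition of NH-12 cells, read out with a cell viability assay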
# Description: SANGER: Inhibition of human NH-12 cell growth in a cell viability assay.
# NUGC-3 = assay type: functional, cell-based, Homo sapiens; conditions: Homo sapiens, NUGC-3;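 also: growth inhibition of human NUGC-3 cells, read out with a cell viability assay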
# Description: SANGER: Inhibition of human NUGC-3 cell growth in a cell viability assay.
# PANC-08-13 = assay type: functional, cell-based, Homo sapiens; conditions: Homo sapiens, PANC-08-13;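 also: cell growth inhibition, measured with a cell viability assay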
# Description: SANGER: Inhibition of human PANC-08-13 cell growth in a cell viability assay.
# RH-1 = assay type: functional, cell-based, Homo sapiens; conditions: Homo sapiens, RH-1;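 also: growth inhibition of human RH-1 cells, read out with a cell viability assay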
# Description: SANGER: Inhibition of human RH-1 cell growth in a cell viability assay.
# Ramos-2G6-4C10 = assay type: functional, cell-based; conditions: Homo sapiens;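 also: growth inhibition of the cell line, measured by a cell viability read-out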
# Description: SANGER: Inhibition of human Ramos-2G6-4C10 cell growth in a cell viability assay.
# SAS = assay type: functional, cell-based, Homo sapiens; conditions: Homo sapiens, SAS;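 also: growth inhibition of SAS cells, read out with a cell viability assay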
# Description: SANGER: Inhibition of human SAS cell growth in a cell viability assay.
# SCC-4 = assay type: functional, cell-based, Homo sapiens; conditions: Homo sapiens, SCC-4;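 also: growth inhibition of human SCC-4 cells, read out as cell viability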
# Description: SANGER: Inhibition of human SCC-4 cell growth in a cell viability assay.
# SK-OV-3 = assay type: functional, cell-based, Homo sapiens; conditions: Homo sapiens, SK-OV-3;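 also: growth inhibition of SK-OV-3 human cells, read out with a cell viability assay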
# Description: SANGER: Inhibition of human SK-OV-3 cell growth in a cell viability assay.
# SK-PN-DW = assay type: functional, cell-based; conditions: Homo sapiens;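 also: growth inhibition measured with a viability assay on these cells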
# Description: SANGER: Inhibition of human SK-PN-DW cell growth in a cell viability assay.
# A2780 = assay type: functional, cell-based, Homo sapiens; conditions: Homo sapiens, A2780;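 also: growth inhibition of A2780 cells, read out with a cell viability assay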
# Description: SANGER: Inhibition of human A2780 cell growth in a cell viability assay.
# A3-KAW = assay type: functional, cell-based; conditions: Homo sapiens;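 also: growth inhibition of human A3-KAW cells, read out with a cell viability assay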
# Description: SANGER: Inhibition of human A3-KAW cell growth in a cell viability assay.
# ACN = assay type: functional, cell-based, Homo sapiens; conditions: Homo sapiens, ACN;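 also: growth inhibition of the human ACN cell line, read out via cell viability testing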
# Description: SANGER: Inhibition of human ACN cell growth in a cell viability assay.
# BE-13 = assay type: functional, cell-based; conditions: Homo sapiens;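 also: growth inhibition of human BE-13 cells, measured with a cell viability assay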
# Description: SANGER: Inhibition of human BE-13 cell growth in a cell viability assay.
# BHT-101 = assay type: functional, cell-based, Homo sapiens; conditions: Homo sapiens, BHT-101
# Description: SANGER: Inhibition of human BHT-101 cell growth in a cell viability assay.
# TE-11 = assay type: functional, cell-based, Homo sapiens; conditions: Homo sapiens, TE-11;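 also: growth inhibition of human TE-11 cells, read out by a cell viability assay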
# Description: SANGER: Inhibition of human TE-11 cell growth in a cell viability assay.
# TE-6 = assay type: functional, cell-based, Homo sapiens; conditions: Homo sapiens, TE-6;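 also: growth inhibition of TE-6 cells, read out with a cell viability assay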
# Description: SANGER: Inhibition of human TE-6 cell growth in a cell viability assay.
# TGBC24TKB = assay type: functional, cell-based, Homo sapiens; conditions: Homo sapiens, TGBC24TKB;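 also: growth inhibition of human TGBC24TKB cells, read out with a cell viability assay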
# Description: SANGER: Inhibition of human TGBC24TKB cell growth in a cell viability assay.
# TYK-nu = assay type: functional, cell-based, Homo sapiens; conditions: Homo sapiens, TYK-nu;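 also: growth inhibition of human TYK-nu cells, read out by a cell viability assay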
# Description: SANGER: Inhibition of human TYK-nu cell growth in a cell viability assay.
# U2OS = assay type: functional, cell-based, Homo sapiens, U-2-OS; conditions: Homo sapiens, U2OS;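 also: growth inhibition of human U-2-OS cells, determined with a cell viability assay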
# Description: SANGER: Inhibition of human U-2-OS cell growth in a cell viability assay.
# VMRC-RCZ = assay type: functional, cell-based; conditions: Homo sapiens;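 also: growth inhibition measured with a cell viability assay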
# Description: SANGER: Inhibition of human VMRC-RCZ cell growth in a cell viability assay.
# WM-115 = assay type: functional, cell-based, Homo sapiens; conditions: Homo sapiens, WM-115
# Description: SANGER: Inhibition of human WM-115 cell growth in a cell viability assay.
# CAMA-1 = assay type: functional, cell-based, Homo sapiens; conditions: Homo sapiens, CAMA-1;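 also: growth inhibition of CAMA-1 cells, read out with a cell viability assay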
# Description: SANGER: Inhibition of human CAMA-1 cell growth in a cell viability assay.
smiles,measurement,setting,value
COc1ccc(C2=N[C@@H](c3ccc(Cl)cc3)[C@@H](c3ccc(Cl)cc3)N2C(=O)N2CCNC(=O)C2)c(OC(C)C)c1 [NUTLIN-3],IC50,COLO-829,7.24 µM
same,IC50,Ca-Ski,> 8 µM
same,IC50,Capan-2,> 8 µM
same,IC50,D283 Med,3.58 µM
same,IC50,DBTRG-05MG,> 8 µM
same,IC50,DMS-273,> 8 µM
same,IC50,DoTc2-4510,> 8 µM
same,IC50,EFO-27,> 8 µM
same,IC50,ES4,2.43 µM
same,IC50,ES5,> 8 µM
same,IC50,ETK-1,> 8 µM
same,IC50,GOTO,3.84 µM
same,IC50,HCC1569,> 8 µM
same,IC50,HCC2157,> 8 µM
same,IC50,HCC70,> 8 µM
same,IC50,HH,> 8 µM
same,IC50,KOSC-2,> 8 µM
same,IC50,KYSE-450,> 8 µM
same,IC50,LB771-HNC,> 8 µM
same,IC50,LK-2,> 8 µM
same,IC50,MKN-45,> 8 µM
same,IC50,MV4-11,0.612 µM
same,IC50,NB12,> 8 µM
same,IC50,NB14,> 8 µM
same,IC50,NB5,6.56 µM
same,IC50,NCI-H1563,> 8 µM
same,IC50,NCI-H2126,> 8 µM
same,IC50,NCI-H520,> 8 µM
same,IC50,NH-12,4.02 µM
same,IC50,NUGC-3,> 8 µM
same,IC50,PANC-08-13,> 8 µM
same,IC50,RH-1,> 8 µM
same,IC50,Ramos-2G6-4C10,> 8 µM
same,IC50,SAS,> 8 µM
same,IC50,SCC-4,> 8 µM
same,IC50,SK-OV-3,> 8 µM
same,IC50,SK-PN-DW,> 8 µM
same,IC50,A2780,> 8 µM
same,IC50,A3-KAW,2.62 µM
same,IC50,ACN,> 8 µM
same,IC50,BE-13,> 8 µM
same,IC50,BHT-101,> 8 µM
same,IC50,TE-11,> 8 µM
same,IC50,TE-6,> 8 µM
same,IC50,TGBC24TKB,> 8 µM
same,IC50,TYK-nu,> 8 µM
same,IC50,U2OS,2.91 µM
same,IC50,VMRC-RCZ,> 8 µM
same,IC50,WM-115,6.93 µM
same,IC50,CAMA-1,> 8 µM
